Measurements from the supplement of paper PMC10307832.

Assays:
Experiment in all cases: relative viability (nuclei count vs DMSO), 5 days (fraction); higher = more cells survive
Carfilzomib + Lapatinib = compound: CC(C)C[C@H](NC(=O)[C@H](CCc1ccccc1)NC(=O)CN1CCOCC1)C(=O)N[C@@H](Cc1ccccc1)C(=O)N[C@@H](CC(C)C)C(=O)[C@@]1(C)CO1 [Carfilzomib] + CS(=O)(=O)CCNCc1ccc(-c2ccc3ncnc(Nc4ccc(OCc5cccc(F)c5)c(Cl)c4)c3c2)o1 [Lapatinib] (partner 2 µM)
Outline: (§1)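 Relative viability divides the nuclei count in treated wells by that in vehicle wells. Lung cancer cell lines were seeded in 1536-well plates, dosed by pin tool the next day, and fixed and stained after 5 days in one step with final 0.05% Triton X-100, 1% formaldehyde and 1 ug/ml Hoechst. Dosing was a single drug or a fixed anchor-drug dose plus five library-drug doses (not always all listed) in √10 steps, and values are medians of duplicate plates imaged at 4×.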

Crizotinib + Olaparib = compound: C[C@@H](Oc1cc(-c2cnn(C3CCNCC3)c2)cnc1N)c1c(Cl)ccc(F)c1Cl [Crizotinib] + O=C(c1cc(Cc2n[nH]c(=O)c3ccccc23)ccc1F)N1CCN(C(=O)C2CC2)CC1 [Olaparib] (partner 8 µM)
Outline: as §1

Olaparib + Palbociclib = compound: O=C(c1cc(Cc2n[nH]c(=O)c3ccccc23)ccc1F)N1CCN(C(=O)C2CC2)CC1 [Olaparib] + CC(=O)c1c(C)c2cnc(Nc3ccc(N4CCNCC4)cn3)nc2n(C2CCCC2)c1=O [Palbociclib] (partner 0.5 µM)
Outline: as §1

Olaparib + Phenformin = compound: O=C(c1cc(Cc2n[nH]c(=O)c3ccccc23)ccc1F)N1CCN(C(=O)C2CC2)CC1 [Olaparib] + N=C(N)NC(=N)NCCc1ccccc1 [Phenformin] (partner 250 µM)
Outline: as §1

Row | Cell Line | relative viability (Carfilzomib + Lapatinib; first compound 0.001 µM) | relative viability (Carfilzomib + Lapatinib; first compound 0.003162 µM) | relative viability (Carfilzomib + Lapatinib; first compound 0.01 µM) | relative viability (Carfilzomib + Lapatinib; first compound 0.03162 µM) | relative viability (Carfilzomib + Lapatinib; first compound 0.1 µM) | relative viability (Crizotinib + Olaparib; first compound 0.01 µM) | relative viability (Crizotinib + Olaparib; first compound 0.03162 µM) | relative viability (Crizotinib + Olaparib; first compound 0.1 µM) | relative viability (Crizotinib + Olaparib; first compound 0.3162 µM) | relative viability (Crizotinib + Olaparib; first compound 1 µM) | relative viability (Olaparib + Palbociclib; first compound 0.08 µM) | relative viability (Olaparib + Palbociclib; first compound 0.253 µM) | relative viability (Olaparib + Palbociclib; first compound 2.53 µM) | relative viability (Olaparib + Palbociclib; first compound 8 µM) | relative viability (Olaparib + Phenformin; first compound 0.08 µM) | relative viability (Olaparib + Phenformin; first compound 0.253 µM) | relative viability (Olaparib + Phenformin; first compound 2.53 µM) | relative viability (Olaparib + Phenformin; first compound 8 µM)
1 | LK-2 | 0.673 | 1.19 | 0.72 | 0.226 | 0.217 | 0.678 | 0.638 | 0.87 | 0.461 | 0.753 | 0.697 | 0.723 | 0.888 | 0.697 | 0.661 | 0.381 | 0.77 | 0.317
2 | LOU-NH91 | 0.767 | 0.783 | 0.607 | 0.309 | 0.288 | 0.917 | 0.876 | 0.925 | 0.848 | 0.912 | 0.55 | 0.538 | 0.526 | 0.533 | 0.885 | 0.663 | 0.716 | 0.769
3 | LU99A | 1 | 1.03 | 0.972 | 0.521 | 0.2 | 0.246 | 0.258 | 0.272 | 0.236 | 0.266 | 0.45 | 0.392 | 0.31 | 0.323 | 0.853 | 0.777 | 0.666 | 0.556
4 | LXF-289 | 0.921 | 0.942 | 0.917 | 0.0958 | 0.101 | 0.994 | 1.12 | 1.15 | 0.993 | 1.11 | 0.635 | 0.6 | 0.684 | 0.689 | 0.555 | 0.477 | 0.547 | 0.526
5 | NCI-H23 | 1.01 | 1.09 | 0.723 | 0.171 | 0.142 | 0.317 | 0.271 | 0.317 | – | 0.388 | 0.586 | 0.542 | 0.475 | 0.5 | 0.841 | 0.714 | 0.724 | 0.609
6 | NCI-H322M | 0.477 | 0.641 | 0.611 | 0.651 | 0.4 | – | 0.839 | 0.746 | 0.658 | 0.777 | 0.468 | 0.408 | 0.515 | 0.462 | 0.937 | 0.815 | 0.81 | 0.635
7 | NCI-H358 | 0.377 | 0.53 | 0.404 | 0.177 | 0.139 | 0.634 | 0.599 | 0.54 | 0.561 | 0.582 | 0.124 | 0.137 | 0.125 | 0.14 | 0.396 | 0.325 | 0.351 | 0.327
8 | NCI-H460 | 0.954 | 1.18 | 0.955 | 0.0195 | 0.0166 | 0.463 | 0.457 | 0.455 | – | 0.423 | 0.0979 | 0.0831 | 0.0723 | 0.0812 | 0.598 | 0.44 | 0.443 | 0.233
9 | NCI-H520 | 0.89 | 1.1 | 0.622 | 0.148 | 0.143 | 0.285 | 0.35 | 0.408 | 0.301 | 0.349 | 0.239 | 0.207 | 0.179 | 0.152 | 0.645 | 0.624 | 0.495 | 0.385
10 | NCI-H647 | 0.974 | 1.17 | 0.428 | 0.0287 | 0.0319 | 0.444 | 0.68 | 0.564 | 0.505 | 0.597 | 0.431 | 0.331 | 0.321 | 0.381 | 0.69 | 0.431 | 0.518 | 0.507
11 | NCI-H650 | 0.61 | 1.33 | 1.04 | 0.361 | 0.18 | 0.481 | 0.465 | 0.396 | – | 0.346 | 0.324 | 0.312 | 0.311 | 0.227 | 0.541 | 0.423 | 0.473 | 0.429
12 | NCI-H661 | 0.548 | 0.836 | 0.533 | 0.507 | 0.191 | 0.703 | 0.761 | 0.741 | 0.81 | 0.737 | 0.384 | 0.383 | 0.389 | 0.362 | 0.219 | 0.278 | 0.273 | 0.253
13 | NCI-H727 | 0.72 | 0.855 | 0.61 | 0.398 | 0.12 | 0.462 | 0.565 | 0.647 | 0.518 | 0.737 | 0.655 | 0.601 | 0.618 | 0.561 | 0.634 | 0.662 | 0.556 | 0.396
14 | NCI-H838 | 0.889 | 1.33 | 1.05 | 0.2 | 0.119 | 0.712 | 0.763 | 0.78 | 0.712 | 0.726 | 0.269 | 0.196 | 0.198 | 0.247 | 0.569 | 0.589 | 0.641 | 0.589
15 | NCI-H1355 | 0.872 | 1.08 | 1.08 | 0.941 | 0.168 | 0.714 | 0.715 | 0.797 | 0.622 | 0.728 | 0.364 | 0.422 | 0.407 | 0.414 | 0.478 | 0.433 | 0.47 | 0.432
16 | NCI-H1395 | 0.897 | 1.55 | 0.841 | 0.318 | 0.311 | 0.458 | 0.452 | 0.5 | 0.487 | 0.428 | 0.649 | 0.611 | 0.6 | 0.499 | 0.419 | 0.4 | 0.423 | 0.396
17 | NCI-H1437 | 0.78 | 0.931 | 0.832 | 0.431 | 0.139 | 0.625 | 0.608 | 0.627 | 0.651 | 0.66 | 0.32 | 0.303 | 0.327 | 0.353 | 0.301 | 0.27 | 0.279 | 0.296
18 | NCI-H1650 | – | 0.781 | 0.264 | 0.165 | 0.154 | 0.619 | 0.801 | 0.71 | 0.779 | 0.722 | 0.478 | 0.324 | 0.331 | 0.335 | 0.446 | 0.475 | 0.405 | 0.537
19 | NCI-H1651 | 0.696 | 0.742 | 0.16 | 0.113 | 0.101 | 0.183 | 0.2 | 0.185 | 0.173 | 0.194 | 0.547 | 0.494 | 0.493 | 0.384 | 0.365 | 0.326 | 0.234 | 0.195
20 | NCI-H1666 | 0.611 | 0.755 | 0.747 | 0.407 | 0.193 | 0.711 | 0.788 | 0.819 | 0.695 | 0.771 | 0.669 | 0.717 | 0.677 | 0.609 | 0.575 | 0.545 | 0.502 | 0.523
21 | NCI-H1734 | 1.03 | 1.11 | 1.02 | 0.317 | 0.203 | 0.63 | 0.574 | 0.624 | – | 0.608 | 0.337 | 0.327 | 0.29 | 0.304 | 0.46 | 0.325 | 0.35 | 0.372
22 | NCI-H1755 | 1.05 | 1.12 | 1.02 | 0.922 | 0.279 | 0.779 | 0.867 | 0.854 | 0.923 | 0.827 | 0.415 | 0.436 | 0.445 | 0.436 | 0.62 | 0.593 | 0.592 | 0.575
23 | NCI-H1792 | 0.794 | 0.896 | 0.939 | 0.985 | 0.697 | 0.505 | 0.458 | 0.378 | – | 0.37 | 0.694 | 0.576 | 0.63 | 0.617 | 0.284 | 0.224 | 0.273 | 0.194
24 | NCI-H1915 | 0.937 | 1.02 | 0.973 | 0.586 | 0.0673 | 0.228 | 0.257 | 0.259 | 0.222 | 0.26 | 0.529 | 0.469 | 0.405 | 0.294 | 0.393 | 0.347 | 0.344 | 0.288
25 | NCI-H1944 | 0.762 | 0.858 | 0.7 | 0.793 | 0.326 | 0.414 | 0.423 | 0.378 | 0.424 | 0.461 | 0.34 | 0.335 | 0.316 | 0.271 | 0.189 | 0.184 | 0.202 | 0.192
26 | NCI-H1975 | 0.76 | 0.911 | 0.389 | 0.116 | 0.135 | 0.806 | 0.743 | 0.794 | 0.749 | 0.774 | 0.593 | 0.607 | 0.569 | 0.502 | 0.437 | 0.385 | 0.414 | 0.408
27 | NCI-H1993 | 0.729 | 0.89 | 0.704 | 0.632 | 0.493 | 0.919 | 0.948 | – | 0.924 | 0.9 | 0.49 | 0.653 | 0.83 | 0.735 | 0.529 | 0.511 | 0.501 | 0.447
28 | NCI-H2009 | 1.02 | 1.37 | 0.828 | 0.0609 | 0.0756 | 0.666 | 0.712 | 0.697 | 0.685 | 0.741 | 0.233 | 0.205 | 0.194 | 0.17 | 0.557 | 0.49 | 0.438 | 0.386
29 | NCI-H2023 | 0.734 | 0.979 | 0.925 | 0.302 | 0.0574 | 0.449 | 0.498 | 0.521 | 0.408 | 0.451 | 0.413 | 0.34 | 0.397 | 0.292 | 0.466 | 0.36 | 0.391 | 0.359
30 | NCI-H2085 | 0.663 | 0.843 | 0.714 | 0.444 | 0.252 | 0.737 | 0.74 | 0.755 | 0.752 | 0.823 | 0.559 | 0.453 | 0.477 | 0.459 | 0.837 | 0.69 | 0.682 | 0.625
